Several values for one entry are separate records, joined by “and”; a condition that tells them apart may be missing. Identical values can stand only once.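 1) Cells in 96-well plates. 2) Compound, 48 h, 5 concentrations. 3) Linear interpolation between surrounding doses. 4) Unreached endpoint = highest concentration. GI50 = concentration required for 50% inhibition of growth. At the TGI there is no net growth.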 Bounds are passed on as bounds.

Some test systems named below: MDA-N; RXF-631 renal; DMS 273 small cell lung; DLD-1 colon; M19-MEL melanoma; DMS 114 small cell lung; KM20L2 colon; XF 498 CNS; SNB-78 CNS; P388 leukemia; SN12K1 renal; P388/ADR leukemia.
What all share (test): NCI tumour cell line growth inhibition, 48 h

For the molecule `O=C(Nc1nccs1)c1cc2c(cc1Cl)Sc1nccn1S2(=O)=O`, in the experiment on MDA-N, the GI50 is 17.9 µM and the TGI was 33.4 µM.

On to `CC(=O)OCc1cc(OC(C)=O)cnc1COC(C)=O`, for which the TGI in the experiment on RXF-631 renal, in the experiment on DMS 273 small cell lung, in the experiment with DLD-1 colon, in the experiment on M19-MEL melanoma, in the experiment on DMS 114 small cell lung and with KM20L2 colon was more than 100 µM each time. This molecule also showed a TGI in the experiment with XF 498 CNS of more than 100 µM.

On to `N/C(=N\N=C\c1cccs1)NO`, for which the TGI with RXF-631 renal, in the experiment on DMS 273 small cell lung, with DLD-1 colon, in the experiment on SNB-78 CNS, in the experiment on M19-MEL melanoma and in the experiment with DMS 114 small cell lung was more than 100 µM in each case. In addition, in the experiment with XF 498 CNS, the TGI was more than 100 µM.

As for `CCOC(=O)c1ccc(N(CCOS(C)(=O)=O)CCOS(C)(=O)=O)cc1C`, in the experiment on MDA-N, the GI50 was 57.8 µM and the TGI was more than 100 µM.

Consider `COc1cc2ccc3c4c(OC)cc(OC)c(OC)c4c(=O)n(C)c3c2cc1OC`, for which the GI50 with RXF-631 renal was 495 nM; in the experiment with DMS 273 small cell lung, 22.2 µM; with DLD-1 colon, 1800 nM; in the experiment on M19-MEL melanoma, 3.7 µM; in the experiment on DMS 114 small cell lung, 1870 nM; with KM20L2 colon, 446 nM. Besides, the GI50 in the experiment with XF 498 CNS is 5.27 µM. For the same molecule, the TGI in the experiment with DLD-1 colon was 4.14 µM and > 33.5 µM; with SNB-78 CNS, 32.5 µM; in the experiment with M19-MEL melanoma, 16.7 µM and > 40.9 µM; with DMS 114 small cell lung it was 16.7 µM and 26.6 µM; in the experiment on XF 498 CNS, 7.16 µM and 61.2 µM.

`Cc1cc(O)c(C(c2cccnc2)c2c(O)cc(C)[nH]c2=O)c(=O)[nH]1` came in with a TGI in the experiment on MDA-N of more than 100 µM.

Turning to `COc1cc(/C=C2\[C@H]3c4c(c(OC)c(C)c(OC)c4OC)C[C@@H](C(=O)N2Cc2ccccc2)N3C(=O)OC(C)C)c(OC)c(C)c1OC`, the TGI with RXF-631 renal, with DMS 273 small cell lung, in the experiment with DLD-1 colon, with DMS 114 small cell lung and with KM20L2 colon was more than 100 µM throughout.

`Nc1ncnc2c1nc(-c1ccccc1)n2C1OC(CO)C(O)C1O` (centres undefined): the TGI in the experiment with MDA-N was more than 100 µM.

Take `Cc1c(C(=O)CC(=O)C(=O)Nc2ccc(Cl)c(Cl)c2)[n+](=O)c2ccccc2n1[O-]`: the TGI with RXF-631 renal was 60.3 µM; with DMS 273 small cell lung it was 49.9 µM; with SNB-78 CNS, more than 100 µM; in the experiment on M19-MEL melanoma, 33.3 µM; in the experiment with DMS 114 small cell lung, 34.3 µM; in the experiment on KM20L2 colon it was more than 100 µM.

In the experiment on MDA-N, `O=C(O)CC(Nc1ccccc1)C(=O)O` (centres undefined) yielded a TGI of more than 100 µM.

In the case of `COc1ccc2c(c1)CCc1c(-c3noc4c3CCc3cc(OC)ccc3-4)noc1-2`, the TGI with MDA-N was more than 100 µM.

`C#CCOCn1cnc2c(=S)nc[nH]c21`: the TGI with RXF-631 renal, with DMS 273 small cell lung, in the experiment on DLD-1 colon, in the experiment with M19-MEL melanoma, in the experiment on DMS 114 small cell lung and in the experiment with KM20L2 colon was more than 100 µM each time. Further, the TGI in the experiment with XF 498 CNS is more than 100 µM.

Regarding `O=[N+]([O-])c1cc(CCl)ccc1CCl`, in the experiment on MDA-N, the TGI turned out to be 4.23 µM.

For the molecule `CC(=O)NC(CCCCNC(=O)N(CCCl)N=O)C(=O)NCc1ccccc1` (centres undefined), the TGI in the experiment with RXF-631 renal, in the experiment with DMS 273 small cell lung, in the experiment with DLD-1 colon, in the experiment with M19-MEL melanoma, in the experiment on DMS 114 small cell lung and in the experiment with KM20L2 colon was more than 100 µM each time. In the experiment with XF 498 CNS, this molecule came in with a TGI of more than 100 µM.

`CNNCc1ccc(C(=O)NC(C)C)cc1`: the TGI in the experiment on P388 leukemia was more than 500 µM; with DMS 273 small cell lung, more than 500 µM; in the experiment on DLD-1 colon, more than 500 µM; in the experiment with SN12K1 renal, more than 456 µM; in the experiment on SNB-78 CNS, more than 500 µM; with MDA-N it was more than 500 µM. Besides, the TGI with M19-MEL melanoma, in the experiment on KM20L2 colon, in the experiment on XF 498 CNS and with P388/ADR leukemia was more than 500 µM in each case. In addition, the GI50 with KM20L2 colon is more than 500000 nM.

`CCC1=C(C)/C(=C/c2[nH]c(CBr)c(CC)c2C)N=C1CBr`: the TGI in the experiment on RXF-631 renal is more than 100 µM; in the experiment with DMS 273 small cell lung, more than 100 µM; in the experiment on DLD-1 colon it was 29 µM; with M19-MEL melanoma, 33.7 µM; with DMS 114 small cell lung, 27.8 µM; with KM20L2 colon, 32.1 µM.

Turning to `COc1ccc(C(c2ccc(C(C)C)cc(=O)c2O)c2ccc3cccnc3c2O)cc1` (centres undefined), the TGI in the experiment with DMS 273 small cell lung is 2.08 µM; in the experiment on DLD-1 colon it was 15.3 µM; with SNB-78 CNS it was 23.2 µM; with M19-MEL melanoma it was 2.54 µM; in the experiment on DMS 114 small cell lung, 0.645 µM; with XF 498 CNS, 16.4 µM.

Take `COc1cc(-c2cc(=O)c3ccccc3o2)ccc1N`: the TGI in the experiment on DMS 273 small cell lung, with SNB-78 CNS, in the experiment on M19-MEL melanoma, in the experiment on DMS 114 small cell lung, in the experiment with KM20L2 colon and in the experiment on XF 498 CNS was more than 100 µM each time.

With `O=c1c2ccccc2nc(-c2ccc(Br)cc2)n1NC1OC(CO)C(O)C(O)C1O` (centres undefined), the TGI with RXF-631 renal, in the experiment on DMS 273 small cell lung, in the experiment with SNB-78 CNS, in the experiment on M19-MEL melanoma, with DMS 114 small cell lung and in the experiment with KM20L2 colon was more than 100 µM each time.

On to `O=C(/C=C\c1cccc2ccccc12)c1cccs1`, for which the TGI in the experiment with DMS 273 small cell lung worked out at 17.9 µM; in the experiment on DLD-1 colon, 16.9 µM; in the experiment with SNB-78 CNS, 34.5 µM; in the experiment with M19-MEL melanoma, 22.4 µM; in the experiment with DMS 114 small cell lung it was 14 µM; with KM20L2 colon, 22.5 µM.

As for `C/C=C/C=N/N(C(=O)c1cc([N+](=O)[O-])cc([N+](=O)[O-])c1)C1=NC(c2ccccc2)C(c2ccccc2)=NN1` (centres undefined), the TGI is more than 100 µM in the experiment on RXF-631 renal; more than 100 µM in the experiment with DMS 273 small cell lung; more than 100 µM with DLD-1 colon; more than 100 µM in the experiment with SNB-78 CNS; 46.2 µM in the experiment with M19-MEL melanoma; 48.4 µM with DMS 114 small cell lung. Besides, the TGI in the experiment on KM20L2 colon is 93.9 µM; with XF 498 CNS, more than 100 µM.

The record behind these values is PubChem BioAssay (NCI).
